How the values were obtained:
Assay type in all cases: cell-based, murine
iNOS protein = experiment: LPS-induced iNOS protein expression in RAW 264.7 cells (Western blot); settings: KMU-470 0.5 and 1 μM 30 min, LPS 1 μg/mL 24 h
Procedure: Figure 3 Inhibitory effect of KMU-470 on LPS-induced NO production and iNOS protein expression, and cell viability in RAW 264.7 cells. (A) The cells were pre-treated with KMU-470 at a concentration of 1 μM for 30 min and then treated with different concentrations of LPS for 24 h. Nitrite in the culture supernatant was collected and evaluated using Griess reagent. Absorbance was measured at 540 nm. *** p < 0.001, ** p < 0.01, * p < 0.05. (B) Cells are pre-treated with two different concentrations of KMU-470 (0.5 μM and 1 μM) for 30 min, followed by treatment with 1 μg/mL LPS for 24 h. β-actin was used as an internal control for Western blot analysis. (C) Image-J program was used to analyze the relative optical density of the iNOS band. (D) Cells were treated with various concentrations of KMU-470 for 24 h. […] (E) The cell proliferation rate was determined by cell count using a trypan blue exclusion assay. *p < 0.05 (F) Effect of KMU-470 on cell viability was measured by XTT assay. *** p < 0.001.
RAW 264.7 cells were pre-treated with KMU-470 (0.5–1 μM/mL) for 24 h and stimulated with LPS (50 ng/mL) for 6 h. […] Immunoreactive proteins were detected using the ELC Western blot detection system kit (Millipore). Signal intensity was measured using the Chemi Image documentation system (Fusion Fx7, VILBER LOUTMAT). Protein expression levels were quantified using the Image J program.

p38 = experiment: LPS-induced phosphorylation of p38 in RAW 264.7 cells (Western blot); settings: KMU-470 1 μM 24 h pre-treatment, LPS 50 ng/mL
Procedure: (§1) Figure 5 Effect of KMU-470 on LPS-induced phosphorylation of MAPKs/ IKKs/ NF-κB in RAW 264.7 cells. (A) Cells were pre-treated with 1μM of KMU-470 for 24 h and stimulated with LPS (50 ng/mL) at the indicated times. (C) Cells were pre-treated with 0.5 and 1μM of KMU-470 for 30 min prior to LPS treatment. Total proteins were isolated after 6 h exposure to LPS (50 ng/mL). The protein expression level of MAPKs, p-IKKα/β, and p-NF-κB were assessed using Western blot analyses. (B,D) The relative optical densities of MAPKs, p-IKKα/β, and p-NF-κB bands were analyzed by the Image-J program. *** p < 0.001.
(§2) RAW 264.7 cells were pre-treated with KMU-470 (0.5–1 μM/mL) for 24 h and stimulated with LPS (50 ng/mL) for 6 h. After stimulation, total cells were harvested, washed with PBS buffer, and then the total protein was extracted with a RIPA buffer (0.1 mM sodium orthovanadate, 137 mM NaCl, 15 mM EGTA, 0.1% Triton X-100, 25 mM MOPS, 15 mM MgCl2, 100 μM phenylmethylsulfonyl fluoride, and 20 μM leupeptin, adjusted to pH 7.2). […] Immunoreactive proteins were detected using the ELC Western blot detection system kit (Millipore). Signal intensity was measured using the Chemi Image documentation system (Fusion Fx7, VILBER LOUTMAT). Protein expression levels were quantified using the Image J program.

IKKα/β = experiment: LPS-induced phosphorylation of IKKα/β in RAW 264.7 cells (Western blot); settings: KMU-470 0.5 and 1 μM 30 min, LPS 50 ng/mL 6 h
Procedure: as §1, §2

## CN(C)CCNc1cncc(-c2ccc3c(c2)/C(=C/c2cnc[nH]2)C(=O)N3)n1 [KMU-470, (Z)-3-((1H-Imidazol-5-yl)methylene)-5-(6-((2-(dimethylamino)ethyl)amino)pyrazin-2-yl)indolin-2-one]
iNOS protein
  LPS-induced up-regulation of iNOS protein: attenuated
p38
  p38 phosphorylation level: no change
IKKα/β
  LPS-induced phosphorylation of IKKα/β: significantly reduced

Reference: article PMC7403980, “Anti-Inflammatory Effects of the Novel PIM Kinase Inhibitor KMU-470 in RAW 264.7 Cells through the TLR4-NF-κB-NLRP3 Pathway” (International Journal of Molecular Sciences, 2020)
